Results reported in PubChem BioAssay AID1549 (Sanford-Burnham Center for Chemical Genomics, 2009).
The source made the active and inactive calls. No rule for the calls is given here.

The compounds below were run against Influenza A virus M2 proton channel (A/TW/4845/1999 H1N1) (assay: NMR binding screen, influenza A virus M2 proton channel, Kd (AID 1549)). Details: M2 protein.

Q: For `COc1cc2c(c(OC)c1OC)-c1ccc(O)c(=O)cc1[C@@H](NC(C)=O)CC2`, which Kd is on record?
A: > 4 mM (inactive)

Q: With `O=C1CCC(=O)N1c1nc2ccccc2s1` as the compound, how does the Kd read?
A: > 4 mM (inactive)

Q: `O=C1CSC(=O)N1c1cccc(O)c1` was tested. Which Kd did it give?
A: > 4 mM (inactive)

Q: For `Cc1nnsc1C(=O)O`, which Kd is on record?
A: > 4 mM (inactive)

Q: For `CSc1nc2nccc(N)n2n1`, which Kd is on record?
A: > 4 mM (inactive)

Q: With `C/C1=C/CC(C)(C)/C=C/C/C(C)=C/CC1` as the compound, how does the Kd read?
A: > 4 mM (inactive)

Q: How did the Kd turn out when `CC(=O)c1cc2c(s1)SCC(=O)N2` was run?
A: > 4 mM (inactive)

Q: Which Kd does the source give for `CC(CC(=O)O)n1cccn1` (configuration not stated) here?
A: > 4 mM (inactive)

Q: With `CCSc1nnc2[nH]c(=O)cc(C)n12` as the compound, how does the Kd read?
A: > 4 mM (inactive)

Q: Which Kd does the source give for `CNC(=O)C1CCCN(S(C)(=O)=O)C1` (configuration not stated) here?
A: > 4 mM (inactive)

Q: How did the Kd turn out when `CN1C2CCC1CC(OC(=O)C(CO)c1ccccc1)C2` (configuration not stated) was run?
A: > 4 mM (inactive)

Q: With `CC[C@]12CCCN3CCc4c(n(c5ccccc45)[C@](O)(C(=O)OC)C1)[C@@H]32` as the compound, how does the Kd read?
A: > 4 mM (inactive)

Q: How did the Kd turn out when `O=C(O)CCC1NCC2CC1CN1CCCCC21` (configuration not stated) was run?
A: > 4 mM (inactive)

Q: For `NC12CC3CC(C1)CC(O)(C3)C2`, which Kd is on record?
A: > 4 mM (inactive)

Q: Which Kd does the source give for `NC(=O)c1ccccc1NC(=O)C1CCCO1` (configuration not stated) here?
A: > 4 mM (inactive)

Q: For `CC(C)NC(=S)N1CCN(S(C)(=O)=O)CC1`, which Kd is on record?
A: > 4 mM (inactive)

Q: How did the Kd turn out when `c1coc(CNc2nc(-c3ccncc3)cs2)c1` was run?
A: > 4 mM (inactive)

Q: With `CC(C)CC(=O)Nc1c[nH]c(=O)[nH]c1=O` as the compound, how does the Kd read?
A: > 4 mM (inactive)

Q: Which Kd does the source give for `C=C(C)[C@@H]1CC[C@]2(CO)CC[C@]3(C)[C@H](CCC4[C@@]5(C)CC[C@H](O)C(C)(C)C5CC[C@]43C)C12` (some centres not stated) here?
A: > 4 mM (inactive)

Q: With `NC(=O)Nc1cccc(C(F)(F)F)c1` as the compound, how does the Kd read?
A: > 4 mM (inactive)

Q: With `Nc1ccc2sccc2c1` as the compound, how does the Kd read?
A: > 4 mM (inactive)

Q: How did the Kd turn out when `O=C1CC[C@]23/C=C/C(=O)NCCCCNCCCNC(=O)/C=C/c4ccc(c2c4)O[C@@H]3C1` was run?
A: > 4 mM (inactive)

Q: How did the Kd turn out when `CC(C)(C)CC(=O)N1CCC(C(N)=O)CC1` was run?
A: > 4 mM (inactive)

Q: With `CC(=O)Oc1ccc2c(c1)c(C(C)=O)c(C)n2C` as the compound, how does the Kd read?
A: > 4 mM (inactive)

Q: For `CC(=O)c1cnc2nc(C(F)(F)F)nn2c1C`, which Kd is on record?
A: > 4 mM (inactive)

Q: With `O=C(Nc1nnc(C(F)(F)F)s1)c1cccnc1` as the compound, how does the Kd read?
A: > 4 mM (inactive)

Q: `N[C@@H](Cc1ccc(O)c(O)c1)C(=O)O` was tested. Which Kd did it give?
A: > 4 mM (inactive)

Q: `O=C(O)c1ccc(-n2cccc2)cc1` was tested. Which Kd did it give?
A: > 4 mM (inactive)

Q: How did the Kd turn out when `Nc1cc(C(=O)O)ccc1N1CCCCCC1` was run?
A: > 4 mM (inactive)

Q: For `COc1ccc2nc(N)sc2n1`, which Kd is on record?
A: > 4 mM (inactive)

Q: With `Nc1cccc(S(=O)(=O)N2CCCCC2)c1` as the compound, how does the Kd read?
A: > 4 mM (inactive)

Q: Which Kd does the source give for `CC(=O)NC(C)(C)C1CC=C(C)/C(=N\O)C1` (configuration not stated) here?
A: > 4 mM (inactive)

Q: Which Kd does the source give for `O=c1[nH]cnc2nn(-c3ccccc3)nc12` here?
A: > 4 mM (inactive)

Q: Which Kd does the source give for `Cc1ccc(N)nc1` here?
A: > 4 mM (inactive)

Q: Which Kd does the source give for `CC(=O)Nc1cccc(-c2nnc3n2CC(C)S3)c1` (configuration not stated) here?
A: > 4 mM (inactive)

Q: `CS(=O)(=O)N1CCC(C(=O)NC2CCCC2)CC1` was tested. Which Kd did it give?
A: > 4 mM (inactive)

Q: How did the Kd turn out when `Cn1c(=O)n(CC(=O)Nc2cccnc2)c2ccccc21` was run?
A: > 4 mM (inactive)

Q: How did the Kd turn out when `N#Cc1c(N)c(C(=O)c2ccccc2)n2c1CCC2` was run?
A: > 4 mM (inactive)

Q: How did the Kd turn out when `C=CCCCCCCCCCCCC(O)CC(O)CO` (configuration not stated) (tested in a mixture with another compound) was run?
A: > 4 mM (inactive)

Q: With `CCOc1ccc2nc(NS(C)(=O)=O)sc2c1` as the compound, how does the Kd read?
A: > 4 mM (inactive)

Q: For `NC(=O)c1sc2ccccc2c1Cl`, which Kd is on record?
A: > 4 mM (inactive)

Q: `NC(=S)NC1CCS(=O)(=O)C1` (configuration not stated) was tested. Which Kd did it give?
A: > 4 mM (inactive)

Q: For `O=C(O)c1cncc(-c2ccccc2)c1`, which Kd is on record?
A: > 4 mM (inactive)

Q: How did the Kd turn out when `CC1CC[C@]2(NC1)O[C@H]1CC3C4CC[C@H]5C[C@@H](O)CC[C@]5(C)C4CC[C@]3(C)[C@H]1[C@@H]2C` (some centres not stated) was run?
A: > 4 mM (inactive)

Q: `CN1CCN(c2ccc(CN)cc2)CC1` was tested. Which Kd did it give?
A: > 4 mM (inactive)

Q: How did the Kd turn out when `COc1ccccc1N1C(=N)SCC1=O` was run?
A: > 4 mM (inactive)

Q: For `Cn1c(NCc2ccco2)nc2ccccc21`, which Kd is on record?
A: > 4 mM (inactive)

Q: Which Kd does the source give for `CC1(C)O[C@H]2[C@H](O)C[C@](O)(C(N)=O)C[C@H]2O1` here?
A: > 4 mM (inactive)

Q: For `CON(C)C(=O)Nc1ccc(Cl)cc1`, which Kd is on record?
A: > 4 mM (inactive)

Q: `CC(C)=NNC(=O)C(=O)NC(C)(C)C` was tested. Which Kd did it give?
A: > 4 mM (inactive)

Q: How did the Kd turn out when `Cc1ccc(C(=O)N2CCC(C(N)=O)CC2)c(Cl)c1` was run?
A: > 4 mM (inactive)

Q: With `O=C(O)CCCCCCCC(=O)O` as the compound, how does the Kd read?
A: > 4 mM (inactive)

Q: For `CCCCC(Nc1n[nH]c(=O)[nH]c1=O)C(=O)O` (configuration not stated), which Kd is on record?
A: > 4 mM (inactive)

Q: For `CSc1ccn(CCC(=O)O)c(=O)n1`, which Kd is on record?
A: > 4 mM (inactive)

Q: How did the Kd turn out when `Cc1ccc(O)c(NC(=O)c2ccco2)c1` was run?
A: > 4 mM (inactive)

Q: With `CC(=O)Nc1ccc2c(c1)C(=O)N(C1CCCCC1)C2=O` as the compound, how does the Kd read?
A: > 4 mM (inactive)

Q: With `CS(=O)(=O)Nc1nnc(Cc2ccccc2)s1` as the compound, how does the Kd read?
A: > 4 mM (inactive)
